Test results taken from ChEMBL document CHEMBL2424650, “Optimization of anti-proliferative activity using a screening approach with a series of bis-heterocyclic G-quadruplex ligands” (Bioorg Med Chem Lett, 2013).
pIC50: −log10 of the molar value.

What was measured:
[1] = Binding affinity to duplex DNA (unknown origin) assessed as change in melting temperature at 5 uM by FRET assay
[2] = Binding affinity to duplex DNA (unknown origin) assessed as change in melting temperature at 1 uM by FRET assay
[3] = Binding affinity to 21-mer Hsp90A promoter quadruplex (unknown origin) assessed as change in melting temperature at 5 uM by FRET assay
[4] = Binding affinity to 21-mer Hsp90A promoter quadruplex (unknown origin) assessed as change in melting temperature at 1 uM by FRET assay
[5] = Binding affinity to c-kit2 G4-quadruplex DNA (unknown origin) assessed as change in melting temperature at 5 uM by FRET assay
[6] = Binding affinity to c-kit2 G4-quadruplex DNA (unknown origin) assessed as change in melting temperature at 1 uM by FRET assay
[7] = species: Homo sapiens; assay: Binding affinity to human F21T G4-telomeric quadruplex assessed as change in melting temperature at 5 uM by FRET assay
[8] = species: Homo sapiens; assay: Binding affinity to human F21T G4-telomeric quadruplex assessed as change in melting temperature at 1 uM by FRET assay
[9] = Antiproliferative activity against human […] cells after 96 hrs by SRB assay; format: cell-based; conditions: WI-38, 96 h
[10] = tested on: A549; assay: Antiproliferative activity against human A549 cells after 96 hrs by SRB assay; format: functional, cell-based; conditions: A549, 96 h
[11] = Antiproliferative activity against human RCC4 cells after 96 hrs by SRB assay; format: functional, cell-based; conditions: RCC4, 96 h
[12] = tested on: 786-0; assay: Antiproliferative activity against human 786-0 cells after 96 hrs by SRB assay; format: functional, cell-based; conditions: 786-0, 96 h
[13] = tested on: MCF7; assay: Antiproliferative activity against human MCF7 cells after 96 hrs by SRB assay; format: functional, cell-based; conditions: MCF7, 96 h

CN1CCN(CCCNc2cccc(-c3ncc(-c4cccc(-c5cnc(-c6cccc(NCCCN7CCN(C)CC7)c6)o5)c4)o3)c2)CC1 gave a ΔTm [1] of 0 °C, a ΔTm [2] of 0 °C and a ΔTm [3] of 25.6 °C. It also gave a ΔTm [4] of less than 2 °C, a ΔTm [5] of 18.3 °C and a ΔTm [6] of less than 2 °C. The ΔTm [7] was 20.1 °C, the ΔTm [8] was less than 2 °C and the pIC50 [9] was 5.96. For the same molecule, the pIC50 [10] was 5.92, the pIC50 [11] was 5.92 and the pIC50 [12] was 6.05. It also gave a pIC50 [13] of 6.00.

For c1cc(-c2cnc(-c3cccc(CN4CCCCC4)c3)o2)cc(-c2cnc(-c3cccc(CN4CCCCC4)c3)o2)c1, the ΔTm [2] was 2 °C, the ΔTm [4] was 5 °C and the ΔTm [6] was less than 2 °C. The ΔTm [8] was less than 2 °C, the pIC50 [9] was 5.36 and the pIC50 [10] was 5.92. For the same molecule, the pIC50 [11] was 5.72, the pIC50 [12] was 5.64 and the pIC50 [13] was 5.85.

In the case of CN1CCN(CCCNc2ccc(-n3cc(-c4ccc5ccc(-c6cn(-c7ccc(NCCCN8CCN(C)CC8)cc7)nn6)cc5c4)nn3)cc2)CC1, the ΔTm [1] was 0 °C, the ΔTm [2] was 0 °C and the ΔTm [3] was less than 10 °C. For the same molecule, the ΔTm [4] was less than 2 °C, the ΔTm [5] was less than 10 °C and the ΔTm [6] was less than 2 °C. It also gave a ΔTm [7] of less than 10 °C, a ΔTm [8] of less than 2 °C and a pIC50 [9] of less than 4.60. The pIC50 [10] was less than 4.60, the pIC50 [11] was less than 4.60 and the pIC50 [12] was less than 4.60. It also gave a pIC50 [13] of less than 4.60.

In the case of CN1CCN(CCCNc2cccc(-c3ncc(-c4ccc5ccc(-c6cnc(-c7cccc(NCCCN8CCN(C)CC8)c7)o6)cc5c4)o3)c2)CC1, the ΔTm [1] was 0 °C, the ΔTm [2] was 0 °C and the ΔTm [3] was less than 10 °C. The ΔTm [4] was 2.5 °C, the ΔTm [5] was less than 10 °C and the ΔTm [6] was less than 2 °C. The ΔTm [7] was less than 10 °C, the ΔTm [8] was less than 2 °C and the pIC50 [9] was 5.51. For the same molecule, the pIC50 [10] was 5.80, the pIC50 [11] was 5.68 and the pIC50 [12] was 5.92. For the same molecule, the pIC50 [13] was 5.72.

Molecule c1cc(-c2cnc(-c3cccc(OCCN4CCCC4)c3)o2)cc(-c2cnc(-c3cccc(OCCN4CCCC4)c3)o2)c1 has a ΔTm [1] of 5.3 °C, a ΔTm [2] of 0 °C and a ΔTm [3] of 27.7 °C. For the same molecule, the ΔTm [4] was 3.4 °C, the ΔTm [5] was 20.3 °C and the ΔTm [6] was less than 2 °C. For the same molecule, the ΔTm [7] was 25.9 °C, the ΔTm [8] was less than 2 °C and the pIC50 [9] was 6.00. The pIC50 [10] was 6.00, the pIC50 [11] was 5.89 and the pIC50 [12] was 6.15. The pIC50 [13] was 5.92.

Work on CN1CCN(CCCNc2cccc(-n3cc(-c4ccc5ccc(-c6cn(-c7cccc(NCCCN8CCN(C)CC8)c7)nn6)cc5c4)nn3)c2)CC1 yielded a ΔTm [1] of 0 °C, a ΔTm [2] of 0 °C and a ΔTm [3] of less than 10 °C. It also gave a ΔTm [4] of 5.7 °C, a ΔTm [5] of less than 10 °C and a ΔTm [6] of 2.4 °C. For the same molecule, the ΔTm [7] was less than 10 °C, the ΔTm [8] was 2.9 °C and the pIC50 [9] was 4.82. The pIC50 [10] was less than 4.60, the pIC50 [11] was 5.08 and the pIC50 [12] was 5.06. It also gave a pIC50 [13] of less than 4.60.

In the case of CCN(CC)CCNc1cccc(-c2ncc(-c3cccc(-c4cnc(-c5cccc(NCCN(CC)CC)c5)o4)c3)o2)c1, the ΔTm [1] was 0 °C, the ΔTm [2] was 0 °C and the ΔTm [3] was 19.5 °C. It also gave a ΔTm [4] of less than 2 °C, a ΔTm [5] of 13.6 °C and a ΔTm [6] of less than 2 °C. The ΔTm [7] was 13.3 °C, the ΔTm [8] was less than 2 °C and the pIC50 [9] was 5.55. It also gave a pIC50 [10] of 5.60, a pIC50 [11] of 5.96 and a pIC50 [12] of 5.89. It also gave a pIC50 [13] of 5.51.

With c1cc(-c2cnc(-c3cccc(NCCN4CCCC4)c3)o2)cc(-c2cnc(-c3cccc(NCCN4CCCC4)c3)o2)c1 the ΔTm [1] was 6.8 °C, the ΔTm [2] was 0 °C and the ΔTm [4] was less than 2 °C. The ΔTm [5] was 17 °C, the ΔTm [6] was less than 2 °C and the ΔTm [7] was 24.7 °C. The ΔTm [8] was less than 2 °C, the pIC50 [9] was 6.00 and the pIC50 [10] was 6.22. For the same molecule, the pIC50 [11] was 5.96, the pIC50 [12] was 5.96 and the pIC50 [13] was 5.68.
